Experimental data taken from patent US20140275257A1, “N-ACETYL CYSTEINE COMPOSITIONS IN THE TREATMENT OF SYSTEMIC LUPUS ERYTHEMATOSUS” (Foundation for the State University of New York, priority 2013, published 2014).

Assays:
Format in all cases: in vivo, human
SLE patients [1] = test: Tolerance and safety, double-blind placebo-controlled pilot study of NAC in SLE
Experimental: 36 patients with stable disease were enrolled in a double-blind placebo-controlled treatment trial with N-acetylcysteine (NAC; FDA approval, IND No: 101,320; clinicaltrials.gov identifier: NCT00775476). SLE patients were randomized to receive either placebo (placebo group—dextrose) or NAC (test group) in one of three treatment arms of increasing doses for three months: 600 mg twice daily (Dose 1), 1,200 mg twice daily (Dose 2), or 2,400 mg twice daily (Dose 3). 12 patients were enrolled per treatment arm, 9 received NAC while 3 received placebo.
At each visit, patients were specifically asked about common side effects (nausea, bloating, bad taste) seen in prior trials These side effects were reviewed by the Data Safety and Monitoring Board (DSMB) bi-annually. Tolerance and safety were primary clinical outcomes.
All 24 patients in Dosing Group 1 (1.2 g/day NAC) and 2 (2.4 g/day NAC) completed the treatment and none of the […] in Dosing Group 1 (1.2 g/day NAC) or 2 (2.4 g/day NAC) reported unpleasant smell or taste. Three of 12 patients in Dosing Group 3 (4.8 g/day) dropped out (Table 6) due to 1) heartburn after 26 days, which resolved after discontinuing the capsules; 2) recurrent nausea and one-time vomiting after 46 days, with resolution after discontinuing the capsules; 3) headaches, which were eliminated by halving the dose to 2.4 g/day. Since all three patients reporting intolerance received NAC, in accordance with the DSMP, no higher dose was initiated. Following the last Dosing Group 3 visit, the study was un-blinded.

mTOR = mTOR activity by phosphorylation of S6 ribosomal protein (pS6-RP) in T-cell subsets; details: for pS6-RPhi T cells in the DN T-cell compartment: baseline 22.5±3.7%
Experimental: mTOR activity was assessed by phosphorylation of its downstream substrate S6 ribosomal protein (pS6-RP) using a monoclonal antibody to pS6-RP (Cell Signaling; Beverly, Mass.; Cat. No. 4851) in cells permeabilized with Cytofix/CytopermPlus (BD Biosciences). […] FIG. 4A: Assessment of pS6-RP in CD3^+, CD4^+, CD8^+, and DN T cells from control (blue histograms) and lupus donors (red histograms). Blue/red values show the percentage of cell populations with increased mTOR activity in control and lupus T-cell subsets, respectively. FIG. 4B: Cumulative analysis of mTOR activity in T-cell subsets of all lupus patients relative to all healthy controls. Values represent mean±SEM of cell populations with increased mTOR activity. p values reflect comparison of lupus and healthy donors with unpaired two-tailed t-test before treatment. FIG. 4C: Effect of NAC on mTOR activity measured by the prevalence of pS6-RP^hi T cells in lupus patients exposed to all doses considered together. p values reflect comparison to pre-treatment visit 1 using two-tailed paired t-test. FIG. 4D: Effect of NAC on CD3/CD28-induced mTOR activity in T cell subsets of lupus patients exposed to all doses considered together.

SLE patients [2] = test: Fatigue Assessment Scale (FAS) in NAC pilot study; details: for FAS: all NAC doses combined, visit 1 28.5
From the text: Fatigue, a nonspecific symptom that is highly prevalent among patients in primary care, is not only an important component of many diseases or disorders, including SLE, but can also play a substantial role in healthy populations. Fatigue is considered the most disabling symptom in a majority of SLE patients. (Krupp, L. B. et al., “A study of fatigue in systemic lupus erythematosus,” J. Rheumatol., 17: 1450-1452 (1990)). The Fatigue Assessment Scale (FAS) is a 10-item unidimensional subjective fatigue scale that measures chronic fatigue. For each statement, one chooses one out of five answer categories varying from “never” to “always: 1=never; 2=sometimes; 3=regularly; 4=often; and 5=always. (Michielsen, H. J. et al., “Psychometric qualities of a brief self-rated fatigue measure: The Fatigue Assessment Scale,” Journal of Psychosomatic Research, 54: 345-352 (2003)).
Fatigue was assessed by using a validated Fatigue Assessment Scale (FAS), a self-questionnaire that provides a subjective measurement of fatigue severity and has shown to have a high degree of internal consistency, validity, and sensitivity to changes in clinical condition, as described in Michielsen, H. J. et al., “Psychometric qualities of a brief self-rated fatigue measure: The Fatigue Assessment Scale,” J. Psychosom. Res., 54(4): 345-352 (2003), the entire content of which is incorporated by reference herein.
Lupus disease activity was measured by SLEDAI and BILAG and fatigue was evaluated by FAC at baseline (visit 1) as well as monthly during a 3-month intervention (visits 2-4) and after a 1-month washout period (visit 5).

[3] = system: anti-double-stranded DNA, C3, and C4; test: Lupus-relevant laboratory tests (anti-double-stranded DNA, C3, C4)
From the text: Routine blood tests included complete blood count, liver and kidney function test, urinalysis and lupus-relevant laboratory tests, such as anti-double-stranded DNA, C3, and C4.

GSH in whole blood = test: HPLC assay of GSH in whole blood of SLE patients; details: after 1 and 2 months of NAC treatment
Experimental: Reduced glutathione (GSH) was measured by reverse phase ion-exchange HPLC using UV detection at 365 nm, as described in Gergely, P. J. et al., “Mitochondrial hyperpolarization and ATP depletion in patients with systemic lupus erythematosus,” Arth. Rheum., 46: 175-190 (2002); and Hanczko, R. et al., “Prevention of hepatocarcinogenesis and acetaminophen-induced liver failure in transaldolase-deficient mice by N-acetylcysteine,” J. Clin. Invest., 119: 1546-1557 (2009). The disclosures of each of these references are incorporated by reference herein in their entirety.
GSH was measured in whole blood and peripheral blood lymphocytes (PBL) before (visit 1; 0 h) and after the first NAC/placebo dose (visit 1; 3 h and 6 h) and upon each monthly follow-up visit (visits 2-4: between 9-11 am after having taken the last NAC/placebo capsule 8 pm the night before), and after 1 month wash-out (visit 5). HPLC analysis required ˜0.25 ml of whole blood and 5×10^6 PBL which were obtained from a total of 10 ml of blood collected at each time point.

SMILES: CC(=O)N[C@@H](CS)C(=O)O [NAC, N-acetyl-L-cysteine]
- patients reporting unpleasant smell or taste (SLE patients [1]; Dosing Group 1 (1.2 g/day NAC) or 2 (2.4 g/day NAC)): none
- patients dropped out (heartburn; recurrent nausea and vomiting; headaches) (SLE patients [1]; Dosing Group 3 (4.8 g/day), all three received NAC): Three of 12
- safety and tolerance (SLE patients [1]; all SLE patients, up to 2.4 g/day): safe and tolerated
- patients with reversible nausea (SLE patients [1]; patients receiving 4.8 g/day): 33%
- pS6-RPhi T cells in the DN T-cell compartment (mTOR; after 2 months, p=0.0104): 16.9±2.5%
- pS6-RPhi T cells in the DN T-cell compartment (mTOR; after 3 months, p=0.0095): 16.4±2.4%
- pS6-RPhi T cells in the DN T-cell compartment (mTOR; after 4 months, p=0.0009): 12.1±2.4%
- CD3/CD28-induced mTOR activation (mTOR; all T cells after 2 months and 3 months, rebounded after washout): diminished
- effect on SLE disease activity, FAS (SLE patients [2]; NAC dose 1 (1.2 g/day)): did not influence
- effect on FAS (SLE patients [2]; NAC dose 2 (2.4 g/day) and dose 3 (4.8 g/day), after 2 months (p=0.002) and 3 months (p=0.004)): reduced
- effect on FAS relative to placebo (mixed model analysis) (SLE patients [2]; NAC dosing group 2, XTMIXED z=−2.08, p=0.038): reduction
- FAS (SLE patients [2]; visit 3 (2 months), p=0.0006): 24.1
- FAS (SLE patients [2]; visit 4 (3 months), p=0.005): 23.9
- FAS (SLE patients [2]; visit 5 (after 1 month washout), p=0.034): 24.8
- C3 ([3]; NAC-treated patients): not affected
- C4 ([3]; NAC-treated patients): not affected
- Anti-DNA ([3]; all NAC doses considered together, after 1 month, baseline 78.9±45.2 IU/ml, p=0.049): 19.5±6.0 IU/ml
- GSH in whole blood (GSH in whole blood): increased
